Experimental data as given in patent publication US12286443B2, “Bycyclic JAK inhibitors and uses thereof” (Insilico Medicine IP Limited, priority 2019, dated 2025).
pIC50: −log10 of the molar value.

Molecular target: T1, JAK1 (Homo sapiens, UniProt P23458)
T1 construct: purchased Invitrogen PV4775
Experiment: Inhibition of JAK1 kinase, LANCE Ultra TR-FRET assay
Assay type: biochemical
Conditions: 2 nM JAK1, 2x ATP 76 μM, 15 min pre-incubation, 90 min reaction, 23° C.
Protocol: (§1) Exemplary compounds were assayed to determine potency in inhibiting activity of JAK1-3 and TYK2 kinases by determining IC50 values.
(§2) The sources of test materials and equipment are as follows: JAK1 (Invitrogen, Cat. No PV4775), JAK2 (Invitrogen, Cat. No PV4210), JAK3 (Invitrogen, Cat. No PV4080), TYK2 (Invitrogen, Cat. No PR8440C), ATP (Sigma, Cat. No. A7699-1G), DMSO (Sigma, Cat. No. D2650), DTT (Sigma, Cat. No. 43815), 384 wells_compound plate (Greiner, Cat. No. 781280), 384 wells_assay plate (Perkin Elmer, Cat. No. 6007299), LANCE Ultra ULight™-JAK-1 peptide (Perkin Elmer, Cat. No. TRF0121), LANCET™ Eu-W1024 Anti-phosphotyrosine (PT66) (Perkin Elmer, Cat. No. AD0069), LANCET™ Detection Buffer(Perkin Elmer, Cat. No. CR97-100).
(§3) The concentrations of test compounds varied from 100 μM to 1.7 nM with 3-fold dilution, 11 points, in duplicates while the concentrations of the reference compound, Tofacitinib, varied from 1 μM to 0.017 nM with 3-fold dilution, 11 points, in duplicates.
(§4) The assay buffer contained 50 mM HEPES (pH 7.5), 0.01% Brij-35, 10 mM MgCl2, 1 mM EDTA, 2 mM DTT. Incubations were carried out at 23° C.
(§5) Prior to the assay, enzyme, peptide substrate and serially diluted test compounds were pre-incubated together in assay buffer (5 μL) for 15 minutes (peptide substrate concentration: 50 nM; JAK enzyme concentrations: 2 nM JAK1; […]; […] and 4 nM TYK2). And the assay was initiated by the addition of 5 μL assay buffer containing 2× final ATP concentration (these are the 2×ATP concentrations: 76 μM JAK1; 24 μM JAK2; 8 μM JAK3 and 30 μM TYK2). Following the 90-minute incubation, antibody conjugated with Eu is dissolved in detection buffer to add into wells and then incubated for 60 minutes. The 10 μL detection buffer contains EDTA to stop the enzymatic reaction. The plate is analyzed by Perkin Elmer Envision on TR-FRET mode. The high ratio of 665/615 represents no inhibition of kinase reaction while the low ratio of 665/615 represents complete inhibition of kinase reaction.
(§6) Curves are fit by XLFIT5 as inhibition rate % vs. log [compound concentration] using 4 parameters logistic model 205.
(§7) In the table, “A” indicates an IC50 of less than 100 nM, “B” indicates an IC50 range from 100 nM to 500 nM; “C” indicates an IC50 range from 500 nM to 2 μM; and “D” indicates an IC50 greater than 2 μM. Also, “na” indicates data is not available.

T1 sequence (P23458 whole entry): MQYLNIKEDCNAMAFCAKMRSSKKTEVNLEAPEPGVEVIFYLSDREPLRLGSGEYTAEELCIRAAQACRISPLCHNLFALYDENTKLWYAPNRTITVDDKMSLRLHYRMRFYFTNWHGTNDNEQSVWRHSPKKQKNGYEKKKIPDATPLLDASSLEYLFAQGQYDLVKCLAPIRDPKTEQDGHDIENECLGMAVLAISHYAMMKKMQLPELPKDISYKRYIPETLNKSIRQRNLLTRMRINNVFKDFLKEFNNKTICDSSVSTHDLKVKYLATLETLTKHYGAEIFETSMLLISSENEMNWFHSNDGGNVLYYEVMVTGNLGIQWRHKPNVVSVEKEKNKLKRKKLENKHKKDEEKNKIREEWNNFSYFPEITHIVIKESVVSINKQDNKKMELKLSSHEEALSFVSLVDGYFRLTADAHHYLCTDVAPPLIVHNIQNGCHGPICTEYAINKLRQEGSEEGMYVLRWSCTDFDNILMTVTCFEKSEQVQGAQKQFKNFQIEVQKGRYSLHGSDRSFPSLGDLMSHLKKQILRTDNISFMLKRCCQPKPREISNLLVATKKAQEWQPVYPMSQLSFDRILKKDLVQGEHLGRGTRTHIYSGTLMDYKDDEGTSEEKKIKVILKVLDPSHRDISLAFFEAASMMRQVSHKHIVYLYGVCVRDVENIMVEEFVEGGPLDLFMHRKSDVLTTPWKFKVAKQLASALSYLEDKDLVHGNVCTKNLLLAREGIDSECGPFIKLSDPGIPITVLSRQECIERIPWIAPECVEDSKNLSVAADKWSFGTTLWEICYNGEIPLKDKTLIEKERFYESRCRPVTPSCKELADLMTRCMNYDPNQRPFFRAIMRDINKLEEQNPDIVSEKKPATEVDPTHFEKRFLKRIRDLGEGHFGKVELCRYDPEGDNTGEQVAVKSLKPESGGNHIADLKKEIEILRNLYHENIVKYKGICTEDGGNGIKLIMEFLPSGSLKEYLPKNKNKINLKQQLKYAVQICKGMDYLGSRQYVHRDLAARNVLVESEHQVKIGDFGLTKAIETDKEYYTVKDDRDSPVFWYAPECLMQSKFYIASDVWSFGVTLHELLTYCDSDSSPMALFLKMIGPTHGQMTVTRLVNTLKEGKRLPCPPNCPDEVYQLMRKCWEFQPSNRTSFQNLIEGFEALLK

pIC50 | SMILES
6.30 to 7.00 | O=C(NCC1CCC1O)c1noc2c1CN(c1ncnc3[nH]ccc13)CC2 (centres unmarked) [Compound 150]
5.70 to 6.30 | O=C(NCCC(O)C1CCCC1)c1noc2c1CN(c1ncnc3[nH]ccc13)CC2 (centres unmarked) [Compound 159]
6.30 to 7.00 | CS(=O)(=O)C(CCNC(=O)c1noc2c1CN(c1ncnc3[nH]ccc13)CC2)C(F)(F)F (centres unmarked) [Compound 170]
6.30 to 7.00 | Cn1nc(C(=O)N[C@H]2C[C@H](C(=O)NS(C)(=O)=O)C2)c2c1CCN(c1ncnc3[nH]ccc13)C2 [Compound 125]
< 5.70 | CNC(=O)[C@H]1C[C@H](NC(=O)c2nn(C)c3c2CN(c2ncnc4[nH]ccc24)CC3)C1 [Compound 122]
6.30 to 7.00 | O=C(NCCC1CC(F)(F)C1)c1noc2c1CN(c1ncnc3[nH]ccc13)CC2 [Compound 148]
6.30 to 7.00 | CS(=O)(=O)N1CCN(CCNC(=O)c2noc3c2CN(c2ncnc4[nH]ccc24)CC3)CC1 [Compound 167]
6.30 to 7.00 | CCn1nc(C(=O)NCCC(F)(F)F)c2c1CCN(c1ncnc3[nH]ccc13)C2 [Compound 112]
6.30 to 7.00 | FC(F)(F)CCNCc1n[nH]c2c1CN(c1ncnc3[nH]ccc13)CC2 [Compound 131]
6.30 to 7.00 | O=C(NCCC(F)(F)F)c1noc2c1CN(c1ncnc3[nH]ncc13)CC2 [Compound 189]
5.70 to 6.30 | CS(=O)(=O)N1CCC(CNC(=O)c2noc3c2CN(c2ncnc4[nH]ccc24)CC3)C1 (centres unmarked) [Compound 166]
6.30 to 7.00 | O=C(NCCC1COC1)c1noc2c1CN(c1ncnc3[nH]ccc13)CC2 [Compound 146]
5.70 to 6.30 | Cn1nc(C(=O)N[C@H]2C[C@H](CC#N)C2)c2c1CCN(c1ncnc3[nH]ccc13)C2 [Compound 128]

Molecular target: T2, JAK2 (Homo sapiens, UniProt O60674)
T2 construct: purchased Invitrogen PV4210
T2 sequence (O60674 whole entry): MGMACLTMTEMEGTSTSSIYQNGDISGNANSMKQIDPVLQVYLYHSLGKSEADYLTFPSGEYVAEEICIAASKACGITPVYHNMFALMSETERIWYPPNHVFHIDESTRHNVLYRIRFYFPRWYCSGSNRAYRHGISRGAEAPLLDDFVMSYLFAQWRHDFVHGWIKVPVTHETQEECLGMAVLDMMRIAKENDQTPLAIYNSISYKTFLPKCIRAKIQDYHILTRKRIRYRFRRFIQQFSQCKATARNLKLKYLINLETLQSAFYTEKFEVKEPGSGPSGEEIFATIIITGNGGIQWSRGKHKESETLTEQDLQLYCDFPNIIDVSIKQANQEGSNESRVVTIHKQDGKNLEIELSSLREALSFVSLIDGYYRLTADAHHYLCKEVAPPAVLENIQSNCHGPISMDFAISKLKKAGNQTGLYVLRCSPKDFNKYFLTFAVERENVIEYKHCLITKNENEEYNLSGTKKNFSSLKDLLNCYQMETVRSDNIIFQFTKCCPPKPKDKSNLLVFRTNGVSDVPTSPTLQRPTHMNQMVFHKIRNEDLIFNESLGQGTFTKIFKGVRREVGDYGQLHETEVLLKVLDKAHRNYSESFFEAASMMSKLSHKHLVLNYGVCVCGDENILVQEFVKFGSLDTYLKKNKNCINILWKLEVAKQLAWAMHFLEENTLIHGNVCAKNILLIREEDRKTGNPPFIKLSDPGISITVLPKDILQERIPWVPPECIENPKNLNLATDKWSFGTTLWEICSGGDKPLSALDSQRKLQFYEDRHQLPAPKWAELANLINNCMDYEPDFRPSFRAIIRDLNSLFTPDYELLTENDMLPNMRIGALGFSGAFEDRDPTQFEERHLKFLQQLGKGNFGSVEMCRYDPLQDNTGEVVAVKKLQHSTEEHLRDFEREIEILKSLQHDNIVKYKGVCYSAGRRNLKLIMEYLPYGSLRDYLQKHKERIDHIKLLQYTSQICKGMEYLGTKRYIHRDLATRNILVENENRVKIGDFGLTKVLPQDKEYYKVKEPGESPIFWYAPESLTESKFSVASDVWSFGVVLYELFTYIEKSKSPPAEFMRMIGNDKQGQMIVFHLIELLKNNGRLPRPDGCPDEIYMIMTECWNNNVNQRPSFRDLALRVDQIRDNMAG
Experiment: Inhibition of JAK2 kinase, LANCE Ultra TR-FRET assay
Assay type: biochemical
Conditions: 2x ATP 24 μM, 15 min pre-incubation, 90 min reaction, 23° C.
Protocol: as §1, §2, §3, §4, §5, §6, §7

pIC50 | SMILES
6.30 to 7.00 | O=C(NCC1CCC1O)c1noc2c1CN(c1ncnc3[nH]ccc13)CC2 (centres unmarked) [Compound 150]
< 5.70 | O=C(NCCC(O)C1CCCC1)c1noc2c1CN(c1ncnc3[nH]ccc13)CC2 (centres unmarked) [Compound 159]
6.30 to 7.00 | CS(=O)(=O)C(CCNC(=O)c1noc2c1CN(c1ncnc3[nH]ccc13)CC2)C(F)(F)F (centres unmarked) [Compound 170]
5.70 to 6.30 | Cn1nc(C(=O)N[C@H]2C[C@H](C(=O)NS(C)(=O)=O)C2)c2c1CCN(c1ncnc3[nH]ccc13)C2 [Compound 125]
< 5.70 | CNC(=O)[C@H]1C[C@H](NC(=O)c2nn(C)c3c2CN(c2ncnc4[nH]ccc24)CC3)C1 [Compound 122]
5.70 to 6.30 | O=C(NCCC1CC(F)(F)C1)c1noc2c1CN(c1ncnc3[nH]ccc13)CC2 [Compound 148]
5.70 to 6.30 | CS(=O)(=O)N1CCN(CCNC(=O)c2noc3c2CN(c2ncnc4[nH]ccc24)CC3)CC1 [Compound 167]
5.70 to 6.30 | CCn1nc(C(=O)NCCC(F)(F)F)c2c1CCN(c1ncnc3[nH]ccc13)C2 [Compound 112]
6.30 to 7.00 | FC(F)(F)CCNCc1n[nH]c2c1CN(c1ncnc3[nH]ccc13)CC2 [Compound 131]
< 5.70 | O=C(NCCC(F)(F)F)c1noc2c1CN(c1ncnc3[nH]ncc13)CC2 [Compound 189]
5.70 to 6.30 | CS(=O)(=O)N1CCC(CNC(=O)c2noc3c2CN(c2ncnc4[nH]ccc24)CC3)C1 (centres unmarked) [Compound 166]
5.70 to 6.30 | O=C(NCCC1COC1)c1noc2c1CN(c1ncnc3[nH]ccc13)CC2 [Compound 146]
5.70 to 6.30 | Cn1nc(C(=O)N[C@H]2C[C@H](CC#N)C2)c2c1CCN(c1ncnc3[nH]ccc13)C2 [Compound 128]
6.30 to 7.00 | N#Cc1ccc(-c2nn(CCO)c3c2CN(c2ncnc4[nH]ccc24)CC3)cc1 [Compound 120]
5.70 to 6.30 | CCn1nc(C(=O)CC#N)c2c1CCN(c1ncnc3[nH]ccc13)C2 [Compound 119]

Molecular target: T3, TYK2 (Homo sapiens, UniProt P29597)
T3 construct: purchased Invitrogen PR8440C
T3 sequence (P29597 whole entry): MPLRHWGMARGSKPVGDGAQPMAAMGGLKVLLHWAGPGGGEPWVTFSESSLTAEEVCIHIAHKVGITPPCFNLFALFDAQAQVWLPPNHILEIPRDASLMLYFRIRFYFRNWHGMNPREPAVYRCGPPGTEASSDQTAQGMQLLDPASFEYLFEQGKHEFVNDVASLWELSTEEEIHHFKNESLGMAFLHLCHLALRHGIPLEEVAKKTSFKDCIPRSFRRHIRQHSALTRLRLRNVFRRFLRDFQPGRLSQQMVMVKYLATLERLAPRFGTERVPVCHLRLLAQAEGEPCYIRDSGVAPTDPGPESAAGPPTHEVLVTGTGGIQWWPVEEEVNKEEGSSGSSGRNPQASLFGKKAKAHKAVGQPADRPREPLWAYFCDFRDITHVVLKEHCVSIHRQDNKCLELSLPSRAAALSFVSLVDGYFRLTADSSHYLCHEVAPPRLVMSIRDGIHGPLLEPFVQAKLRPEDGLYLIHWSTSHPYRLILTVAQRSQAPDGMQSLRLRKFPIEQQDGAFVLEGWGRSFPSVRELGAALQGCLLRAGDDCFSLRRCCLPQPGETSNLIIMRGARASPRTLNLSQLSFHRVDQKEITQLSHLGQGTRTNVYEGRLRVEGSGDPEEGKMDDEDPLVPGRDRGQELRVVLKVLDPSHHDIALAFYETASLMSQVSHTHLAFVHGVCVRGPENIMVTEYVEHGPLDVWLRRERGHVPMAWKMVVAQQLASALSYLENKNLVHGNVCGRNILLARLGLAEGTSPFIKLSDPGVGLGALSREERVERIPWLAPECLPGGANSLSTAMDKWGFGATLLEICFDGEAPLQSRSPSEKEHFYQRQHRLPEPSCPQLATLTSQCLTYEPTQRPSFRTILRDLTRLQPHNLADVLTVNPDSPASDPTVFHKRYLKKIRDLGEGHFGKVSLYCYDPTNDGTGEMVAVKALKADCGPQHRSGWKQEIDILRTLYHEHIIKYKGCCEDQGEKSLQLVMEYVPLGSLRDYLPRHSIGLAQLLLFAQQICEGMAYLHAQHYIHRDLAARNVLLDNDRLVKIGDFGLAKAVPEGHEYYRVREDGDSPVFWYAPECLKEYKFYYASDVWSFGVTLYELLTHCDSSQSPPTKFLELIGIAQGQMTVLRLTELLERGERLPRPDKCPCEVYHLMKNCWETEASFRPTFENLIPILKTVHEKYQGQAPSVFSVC
Experiment: Inhibition of TYK2 kinase, LANCE Ultra TR-FRET assay
Assay type: biochemical
Conditions: 4 nM TYK2, 2x ATP 30 μM, 15 min pre-incubation, 90 min reaction, 23° C., read-out: tyk IC50
Protocol: as §1, §2, §3, §4, §5, §6, §7

pIC50 | SMILES
< 5.70 | O=C(NCC1CCC1O)c1noc2c1CN(c1ncnc3[nH]ccc13)CC2 (centres unmarked) [Compound 150]
< 5.70 | O=C(NCCC(O)C1CCCC1)c1noc2c1CN(c1ncnc3[nH]ccc13)CC2 (centres unmarked) [Compound 159]
< 5.70 | CS(=O)(=O)C(CCNC(=O)c1noc2c1CN(c1ncnc3[nH]ccc13)CC2)C(F)(F)F (centres unmarked) [Compound 170]
< 5.70 | Cn1nc(C(=O)N[C@H]2C[C@H](C(=O)NS(C)(=O)=O)C2)c2c1CCN(c1ncnc3[nH]ccc13)C2 [Compound 125]
< 5.70 | CNC(=O)[C@H]1C[C@H](NC(=O)c2nn(C)c3c2CN(c2ncnc4[nH]ccc24)CC3)C1 [Compound 122]
< 5.70 | O=C(NCCC1CC(F)(F)C1)c1noc2c1CN(c1ncnc3[nH]ccc13)CC2 [Compound 148]
< 5.70 | CS(=O)(=O)N1CCN(CCNC(=O)c2noc3c2CN(c2ncnc4[nH]ccc24)CC3)CC1 [Compound 167]
< 5.70 | CCn1nc(C(=O)NCCC(F)(F)F)c2c1CCN(c1ncnc3[nH]ccc13)C2 [Compound 112]
6.30 to 7.00 | FC(F)(F)CCNCc1n[nH]c2c1CN(c1ncnc3[nH]ccc13)CC2 [Compound 131]
< 5.70 | O=C(NCCC(F)(F)F)c1noc2c1CN(c1ncnc3[nH]ncc13)CC2 [Compound 189]
< 5.70 | CS(=O)(=O)N1CCC(CNC(=O)c2noc3c2CN(c2ncnc4[nH]ccc24)CC3)C1 (centres unmarked) [Compound 166]
< 5.70 | O=C(NCCC1COC1)c1noc2c1CN(c1ncnc3[nH]ccc13)CC2 [Compound 146]
< 5.70 | Cn1nc(C(=O)N[C@H]2C[C@H](CC#N)C2)c2c1CCN(c1ncnc3[nH]ccc13)C2 [Compound 128]

Molecular target: T4, JAK3 (Homo sapiens, UniProt P52333)
T4 construct: purchased Invitrogen PV4080
T4 sequence (P52333 1-1124): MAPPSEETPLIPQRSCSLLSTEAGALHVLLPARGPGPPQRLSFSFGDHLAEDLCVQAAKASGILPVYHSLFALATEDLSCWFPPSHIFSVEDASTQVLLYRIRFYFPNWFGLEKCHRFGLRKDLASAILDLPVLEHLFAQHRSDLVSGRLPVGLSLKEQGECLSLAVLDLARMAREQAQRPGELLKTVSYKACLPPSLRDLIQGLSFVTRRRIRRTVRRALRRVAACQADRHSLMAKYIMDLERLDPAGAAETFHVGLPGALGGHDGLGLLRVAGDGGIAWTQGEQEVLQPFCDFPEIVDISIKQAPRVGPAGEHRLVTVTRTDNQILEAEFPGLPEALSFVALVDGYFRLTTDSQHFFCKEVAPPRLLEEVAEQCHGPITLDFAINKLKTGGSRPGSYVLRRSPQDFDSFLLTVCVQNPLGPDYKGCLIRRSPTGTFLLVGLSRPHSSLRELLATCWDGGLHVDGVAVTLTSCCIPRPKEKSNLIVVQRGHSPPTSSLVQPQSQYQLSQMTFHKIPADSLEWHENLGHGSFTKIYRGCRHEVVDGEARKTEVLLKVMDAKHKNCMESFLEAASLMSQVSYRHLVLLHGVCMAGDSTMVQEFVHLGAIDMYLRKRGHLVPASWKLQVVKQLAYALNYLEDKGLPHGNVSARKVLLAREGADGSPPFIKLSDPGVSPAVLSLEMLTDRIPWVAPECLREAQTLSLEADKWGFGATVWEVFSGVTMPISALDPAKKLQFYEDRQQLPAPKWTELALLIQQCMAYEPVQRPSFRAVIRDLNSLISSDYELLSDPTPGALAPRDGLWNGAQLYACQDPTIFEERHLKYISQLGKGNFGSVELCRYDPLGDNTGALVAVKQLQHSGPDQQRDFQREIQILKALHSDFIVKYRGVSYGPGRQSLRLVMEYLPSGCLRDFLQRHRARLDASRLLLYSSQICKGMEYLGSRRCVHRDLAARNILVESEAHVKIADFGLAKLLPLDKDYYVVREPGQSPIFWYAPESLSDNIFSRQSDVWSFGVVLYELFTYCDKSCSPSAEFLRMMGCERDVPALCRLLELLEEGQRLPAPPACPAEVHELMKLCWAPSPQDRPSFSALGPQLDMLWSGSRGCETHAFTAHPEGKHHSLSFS
Experiment: Inhibition of JAK3 kinase, LANCE Ultra TR-FRET assay
Assay type: biochemical
Conditions: 2x ATP 8 μM, 15 min pre-incubation, 90 min reaction, 23° C.
Protocol: as §1, §2, §3, §4, §5, §6, §7

pIC50 | SMILES
> 7.00 | O=C(NCC1CCC1O)c1noc2c1CN(c1ncnc3[nH]ccc13)CC2 (centres unmarked) [Compound 150]
6.30 to 7.00 | O=C(NCCC(O)C1CCCC1)c1noc2c1CN(c1ncnc3[nH]ccc13)CC2 (centres unmarked) [Compound 159]
6.30 to 7.00 | CS(=O)(=O)C(CCNC(=O)c1noc2c1CN(c1ncnc3[nH]ccc13)CC2)C(F)(F)F (centres unmarked) [Compound 170]
6.30 to 7.00 | Cn1nc(C(=O)N[C@H]2C[C@H](C(=O)NS(C)(=O)=O)C2)c2c1CCN(c1ncnc3[nH]ccc13)C2 [Compound 125]
< 5.70 | CNC(=O)[C@H]1C[C@H](NC(=O)c2nn(C)c3c2CN(c2ncnc4[nH]ccc24)CC3)C1 [Compound 122]
6.30 to 7.00 | O=C(NCCC1CC(F)(F)C1)c1noc2c1CN(c1ncnc3[nH]ccc13)CC2 [Compound 148]
6.30 to 7.00 | CS(=O)(=O)N1CCN(CCNC(=O)c2noc3c2CN(c2ncnc4[nH]ccc24)CC3)CC1 [Compound 167]
> 7.00 | CCn1nc(C(=O)NCCC(F)(F)F)c2c1CCN(c1ncnc3[nH]ccc13)C2 [Compound 112]
> 7.00 | FC(F)(F)CCNCc1n[nH]c2c1CN(c1ncnc3[nH]ccc13)CC2 [Compound 131]
6.30 to 7.00 | O=C(NCCC(F)(F)F)c1noc2c1CN(c1ncnc3[nH]ncc13)CC2 [Compound 189]
6.30 to 7.00 | CS(=O)(=O)N1CCC(CNC(=O)c2noc3c2CN(c2ncnc4[nH]ccc24)CC3)C1 (centres unmarked) [Compound 166]
6.30 to 7.00 | O=C(NCCC1COC1)c1noc2c1CN(c1ncnc3[nH]ccc13)CC2 [Compound 146]
5.70 to 6.30 | Cn1nc(C(=O)N[C@H]2C[C@H](CC#N)C2)c2c1CCN(c1ncnc3[nH]ccc13)C2 [Compound 128]
5.70 to 6.30 | N#Cc1ccc(-c2nn(CCO)c3c2CN(c2ncnc4[nH]ccc24)CC3)cc1 [Compound 120]
5.70 to 6.30 | CCn1nc(C(=O)CC#N)c2c1CCN(c1ncnc3[nH]ccc13)C2 [Compound 119]
